The assay deals with T1, Human M4 (Homo sapiens, UniProt P08173).
T1 construct: expressed in transfected cells; host or cells: CHO-K1 (ATCC), co-transfected with chimeric G protein Gqi5
T1 sequence (P08173 1-479): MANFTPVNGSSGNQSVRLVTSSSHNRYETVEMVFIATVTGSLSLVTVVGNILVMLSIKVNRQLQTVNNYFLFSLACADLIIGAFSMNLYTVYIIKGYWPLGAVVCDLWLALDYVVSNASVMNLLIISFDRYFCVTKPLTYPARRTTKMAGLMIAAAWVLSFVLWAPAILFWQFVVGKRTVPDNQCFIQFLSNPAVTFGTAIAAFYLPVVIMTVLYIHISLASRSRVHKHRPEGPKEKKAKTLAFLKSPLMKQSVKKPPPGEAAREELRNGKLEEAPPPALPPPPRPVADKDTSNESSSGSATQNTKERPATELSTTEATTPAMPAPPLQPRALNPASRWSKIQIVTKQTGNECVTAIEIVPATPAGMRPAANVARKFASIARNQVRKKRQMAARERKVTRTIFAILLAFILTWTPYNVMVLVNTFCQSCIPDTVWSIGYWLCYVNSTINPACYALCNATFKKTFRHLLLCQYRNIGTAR
Briefly: mAChR M4 cell-based functional assay (calcium flux, antagonism of EC80 acetylcholine response). The settings on record: M4/Gqi5/CHO-K1 cells; for remaining activity at 30 µM: CHO-K1, % ACh maximum at 30 μM, read-out: Human M4 Emin; for IC50: decrease of response elicited by EC80 acetylcholine. An outline of the steps: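 CHO-K1 cells stably expressing human or rat M4 with Gqi5, Fluo-4 loaded; calcium measured by fluorescence ratio on FDSS. Compound added, then EC20 acetylcholine at 143 s and EC80 at 268 s; IC50 from decrease of EC80 response, four-parameter logistic fit.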
(Calcium assays in cells follow changes in intracellular calcium, usually with a dye or a luminescent sensor.)

We go through 20 molecules from US20230122344A1, “ANTAGONISTS OF THE MUSCARINIC ACETYLCHOLINE RECEPTOR M4” (Vanderbilt University, priority 2019, published 2023).

Each structure is given as a SMILES string.

As to `[2H]C([2H])(C1CCOCC1)N1C[C@H]2C[C@H](Nc3nnc(N4CCC(F)(F)CC4)cc3C3CC3)C[C@H]2C1` [compound 28, (3aR,5s,6aS)-N-(4-cyclopropyl-6-(4,4-difluoropiperidin-1-yl)pyridazin-3-yl)-2-((tetrahydro-2H-pyran-4-yl)methyl-d2)octahydrocyclopenta[c]pyrrol-5-amine], the remaining activity at 30 µM came to 3% and the half-inhibitory concentration (IC50) is 186 nM.
With `CC1(CN2C[C@H]3C[C@H](Nc4nnc(-c5cc(F)ccc5F)cc4C(F)F)C[C@H]3C2)CCOCC1` [compound 79, (3aR,5s,6aS)-N-(4-(difluoromethyl)-6-(2,5-difluorophenyl)pyridazin-3-yl)-2-((4-methyltetrahydro-2H-pyran-4-yl)methyl)octahydrocyclopenta[c]pyrrol-5-amine], the remaining activity at 30 µM was found to be 4% and the half-inhibitory concentration (IC50) worked out at 110 nM.
The corresponding values for `[2H]C([2H])(C1CCOCC1)N1C[C@H]2C[C@H](Nc3nnc(-c4cc(F)ccc4F)cc3C(F)F)C[C@H]2C1` [compound 25, (3aR,5s,6aS)-N-(4-(difluoromethyl)-6-(2,5-difluorophenyl)pyridazin-3-yl)-2-((tetrahydro-2H-pyran-4-yl)methyl-d2)octahydrocyclopenta[c]pyrrol-5-amine] are 3% and 1.68 nM.
Turning to `Fc1ccc(C(F)(F)F)c(-c2cc(C(F)F)c(N[C@H]3C[C@@H]4CN(CC5CCOCC5)C[C@@H]4C3)nn2)c1` [compound 87, (3aR,5s,6aS)-N-(4-(difluoromethyl)-6-(5-fluoro-2-(trifluoromethyl)phenyl)pyridazin-3-yl)-2-((tetrahydro-2H-pyran-4-yl)methyl)octahydrocyclopenta[c]pyrrol-5-amine], the remaining activity at 30 µM is 3% and the IC50 was 4.9 nM.
Turning to `[2H]C([2H])(C1CCOCC1)N1C[C@H]2C[C@H](Nc3cc(C)c(-c4cc(F)cc(F)c4F)nn3)C[C@H]2C1` [compound 37, (3aR,5s,6aS)-N-(5-methyl-6-(2,3,5-trifluorophenyl)pyridazin-3-yl)-2-((tetrahydro-2H-pyran-4-yl)methyl-d2)octahydrocyclopenta[c]pyrrol-5-amine], the remaining activity at 30 µM was determined as 3% and the IC50 is 0.69 nM.
The like results for `OC1(CN2C[C@H]3C[C@H](Nc4nnc(-c5cc(F)ccc5F)cc4C(F)F)C[C@H]3C2)CCOCC1` [compound 78, 4-(((3aR,5s,6aS)-5-((4-(difluoromethyl)-6-(2,5-difluorophenyl)pyridazin-3-yl)amino)hexahydrocyclopenta[c]pyrrol-2(1H)-yl)methyl)tetrahydro-2H-pyran-4-ol] were, in that order, 4% and 230 nM.
For `[2H]C([2H])(C1CCOCC1)N1C[C@H]2C[C@H](Nc3cc(C(F)F)c(-c4cc(F)cc(F)c4F)nn3)C[C@H]2C1` [compound 40, (3aR,5s,6aS)-N-(5-(difluoromethyl)-6-(2,3,5-trifluorophenyl)pyridazin-3-yl)-2-((tetrahydro-2H-pyran-4-yl)methyl-d2)octahydrocyclopenta[c]pyrrol-5-amine], the remaining activity at 30 µM came out at 3% and the IC50 came to 1.37 nM.
The like results for `Fc1cc(F)c(F)c(-c2nnc(N[C@H]3C[C@@H]4CN(C[C@@H]5COCCO5)C[C@@H]4C3)cc2C(F)F)c1` [compound 56, (3aR,5s,6aS)-2-(((R)-1,4-dioxan-2-yl)methyl)-N-(5-(difluoromethyl)-6-(2,3,5-trifluorophenyl)pyridazin-3-yl)octahydrocyclopenta[c]pyrrol-5-amine] were, in that order, 2% and 0.66 nM.
As for `COc1cc(-c2ccc(F)cc2)nnc1N[C@H]1C[C@@H]2CN(CC3CCOCC3)C[C@@H]2C1` [compound 3, (3aR,5s,6aS)-N-(6-(4-fluorophenyl)-4-methoxypyridazin-3-yl)-2-((tetrahydro-2H-pyran-4-yl)methyl)octahydrocyclopenta[c]pyrrol-5-amine], the remaining activity at 30 µM was 5% and the IC50 turned out to be 48.4 nM.
The like results for `[2H]C([2H])(C1CCOCC1)N1C[C@H]2C[C@H](Nc3nnc(-c4ccccc4F)c(C)c3C)C[C@H]2C1` [compound 61, (3aR,5s,6aS)-N-(6-(2-fluorophenyl)-4,5-dimethylpyridazin-3-yl)-2-((tetrahydro-2H-pyran-4-yl)methyl-d2)octahydrocyclopenta[c]pyrrol-5-amine] were, in that order, 2% and 0.52 nM.
Turning to `CC(c1ccccn1)N1C[C@H]2C[C@H](Nc3cc(C(F)F)c(-c4cc(F)cc(F)c4F)nn3)C[C@H]2C1` (stereo partly drawn) [compound 50, (3aR,5s,6aS)-N-(5-(difluoromethyl)-6-(2,3,5-trifluorophenyl)pyridazin-3-yl)-2-(1-(pyridin-2-yl)ethyl)octahydrocyclopenta[c]pyrrol-5-amine], the remaining activity at 30 µM was found to be 2% and the IC50 was 34.8 nM.
The corresponding values for `Cc1ccc(F)cc1-c1nnc(N[C@H]2C[C@@H]3CN(CC4CCOCC4)C[C@@H]3C2)cc1C` [compound 12, (3aR,5s,6aS)-N-(6-(5-fluoro-2-methylphenyl)-5-methylpyridazin-3-yl)-2-((tetrahydro-2H-pyran-4-yl)methyl)octahydrocyclopenta[c]pyrrol-5-amine] are 2% and 2.55 nM.
The corresponding values for `Fc1cc(F)c(F)c(-c2nnc(N[C@H]3C[C@@H]4CN(C[C@H]5COCCO5)C[C@@H]4C3)cc2C(F)F)c1` [compound 57, (3aR,5s,6aS)-2-(((S)-1,4-dioxan-2-yl)methyl)-N-(5-(difluoromethyl)-6-(2,3,5-trifluorophenyl)pyridazin-3-yl)octahydrocyclopenta[c]pyrrol-5-amine] are 3% and 15.5 nM.
Turning to `COc1cc(-c2ccc3nn(C)cc3c2C)nnc1N[C@H]1C[C@@H]2CN(CC3CCOCC3)C[C@@H]2C1` [compound 8, (3aR,5s,6aS)-N-(6-(2,4-dimethyl-2H-indazol-5-yl)-4-methoxypyridazin-3-yl)-2-((tetrahydro-2H-pyran-4-yl)methyl)octahydrocyclopenta[c]pyrrol-5-amine], the remaining activity at 30 µM came out at 4% and the IC50 turned out to be 2.04 nM.
The like results for `Cc1cc(N[C@H]2C[C@@H]3CN(CC4CCOCC4)C[C@@H]3C2)nnc1-c1cc(F)ccc1F` [compound 13, (3aR,5s,6aS)-N-(6-(2,5-difluorophenyl)-5-methylpyridazin-3-yl)-2-((tetrahydro-2H-pyran-4-yl)methyl)octahydrocyclopenta[c]pyrrol-5-amine] were, in that order, 5% and 0.14 nM.
On to `Cc1ccc(F)cc1-c1cc(S(C)(=O)=O)c(N[C@H]2C[C@@H]3CN(CC4CCOCC4)C[C@@H]3C2)nn1` [compound 9, (3aR,5s,6aS)-N-(6-(5-fluoro-2-methylphenyl)-4-(methylsulfonyl)pyridazin-3-yl)-2-((tetrahydro-2H-pyran-4-yl)methyl)octahydrocyclopenta[c]pyrrol-5-amine], for which the remaining activity at 30 µM is 3% and the IC50 amounted to 18.4 nM.
The corresponding values for `Cc1cc(N[C@H]2C[C@@H]3CN(CC4CCOCC4)C[C@@H]3C2)nnc1-c1ccc2nn(C)cc2c1` [compound 15, (3aR,5s,6aS)-N-(5-methyl-6-(2-methyl-2H-indazol-5-yl)pyridazin-3-yl)-2-((tetrahydro-2H-pyran-4-yl)methyl)octahydrocyclopenta[c]pyrrol-5-amine] are 3% and 1.1 nM.
Turning to `Cn1cc2cc(-c3cc(C(F)F)c(N[C@H]4C[C@@H]5CN(CC6CCOCC6)C[C@@H]5C4)nn3)ccc2n1` [compound 83, (3aR,5s,6aS)-N-(4-(difluoromethyl)-6-(2-methyl-2H-indazol-5-yl)pyridazin-3-yl)-2-((tetrahydro-2H-pyran-4-yl)methyl)octahydrocyclopenta[c]pyrrol-5-amine], the remaining activity at 30 µM was 5% and the half-inhibitory concentration (IC50) was found to be 2.3 nM.
Regarding `[2H]C([2H])(C1CCOCC1)N1C[C@H]2C[C@H](Nc3nnc(N4CCC(F)(F)CC4)cc3C3CCC3)C[C@H]2C1` [compound 29, (3aR,5s,6aS)-N-(4-cyclobutyl-6-(4,4-difluoropiperidin-1-yl)pyridazin-3-yl)-2-((tetrahydro-2H-pyran-4-yl)methyl-d2)octahydrocyclopenta[c]pyrrol-5-amine], the remaining activity at 30 µM is 2% and the IC50 came out at 60.7 nM.
The corresponding values for `[2H]C([2H])(C1CCOCC1)N1C[C@H]2C[C@H](Nc3nnc(-c4cc(F)ccc4C)cc3C3CCC3)C[C@H]2C1` [compound 31, (3aR,5s,6aS)-N-(4-cyclobutyl-6-(5-fluoro-2-methylphenyl)pyridazin-3-yl)-2-((tetrahydro-2H-pyran-4-yl)methyl-d2)octahydrocyclopenta[c]pyrrol-5-amine] are 3% and 34.5 nM.

As usually defined, the IC50 is the concentration at which inhibition is half-maximal.
